{
  "source": "paper PMC11955804",
  "about": "“Histidine-rich enantiomeric peptide coacervates enhance antigen sequestration and presentation to T cells” (Chemical Science, 2025)",
  "key": {"[1]": {"system": "BMDCs overlaid with DOBW cells", "assay": "In vitro antigen presentation assay, MHC class II (BMDCs + DOBW hybridoma, IL-2 ELISA)", "conditions": "BMDCs pre-treated 1 h: Chlorpromazine 30 µM, Dynasore 50 µM, Wortmannin 10 µM, Methyl β-CD 2 mM; OVA-loaded coacervates; DOBW overlay 16 h", "method": "To test internalization mechanisms, we utilized in vitro antigen presentation assays (Fig. 4A). Here, bone marrow-derived dendritic cells (BMDCs) are treated with coacervates loaded with the model antigen ovalbumin (OVA). […] Secretion of IL-2 in response to peptide-MHC recognition is an indirect measure of coacervate uptake and can be quantified using ELISA (enzyme-linked immunosorbent assay) (Fig. 4A). […] We next used pharmacological inhibitors of endocytic mechanisms to explore mechanisms of cell entry (Fig. 4E). BMDCs were treated with inhibitors of clathrin-mediated endocytosis (chlorpromazine, CPZ),[58] dynamin-dependent endocytosis (dynasore, Dyn),[59] macropinocytosis (wortmannin, Wort),[60] cholesterol (methyl β-CD),[61] and IPA3 the regulatory domain of PAK1 (IPA-3)[62] for one h prior to antigen presentation assays.\nUptake of coacervates by BMDCs was measured using in vitro antigen presentation assays.\nBMDCs were plated in 96-well round-bottom plates (1×10^5 cells/well) and maintained at 4°C or\ntreated with 10 mM deoxy glucose and 10 mM sodium azide in PBS (ATP depletion) for 1 h prior\nto addition of OVA-loaded coacervates. Final OVA concentration was 1 g/mL for time-\ndependent measurements and 10 g/mL for comparison between enantiomers. Cells maintained at\n37°C and complete RPMI media served as controls. Soluble OVA and PBS treated cells were used as controls for antigen delivery. Following treatment (2 h, 4 h, 24 h, 48 h, or 72 h), BMDCs were\nwashed to remove extracellular coacervates and DOBW hybridoma cells (1:5, DC: DOBW) were\noverlaid for 16 h. The cells were then centrifuged at 300 × g for 5 min, and the supernatant was\ncollected for IL-2 quantitation by ELISA according to the manufacturer protocol (Biotechne,\n#DY402). The amount of IL-2 produced under each condition was measured.\nInhibition of coacervate uptake was measured by adding the inhibitors 1 h\nprior to coacervate treatment for 24 h followed by hybridoma overlay and IL-2 measurements."}, "DCs": {"system": "DCs", "assay": "DQ-OVA delivery to lysosomes (fluorescence microscopy)", "format": "cell-based, mouse", "conditions": "DCs treated with DQ-OVA coacervates", "protocol": "page 13: Flow cytometry The transfected A549 cells were washed with FACS wash buffer (FWB; 1× PBS with 10% […] Cells were washed again with FWB and then resuspended in 100 µl of PBS with eBioscience™ Fixable Viability Dye eFluor™ 506 antibody. The staining was quenched with FWB following a 20 min incubation. The cells were centrifuged, washed 2× times with FWB, and resuspended in 100 µl FWB with CD55 (DAF) Antibody (anti-human; miltenyibiotec Cat#130-126-382). After 20 min, staining was quenched, cells washed twice and resuspended in 200 µl FWB for acquisition. Single-stained cells stained with eFluor™ 506, CD55 (DAF) Antibody, were used as compensation controls. Samples were acquired using an Agilent NovoCyte 3000 flow cytometer. Data were analyzed with FlowJo version 10. […] was quantified as the percentage CD55+ cells, considering untreated cells as the negative control and Lipofectamine treated ones as the positive control. Antigen delivery to lysosomes and inhibitor effects DC 2.4 cells were cultured in RPMI-1640 (Catalog number: 11875093) medium supplemented with 10% FBS, 100 U/mL penicillin, 100 μg/mL streptomycin, and 1 mM sodium pyruvate. Cells were plated in 8-well chamber slides (5000 cells in 200 μL of media) and incubated for 24 h prior to addition of DQ-OVA loaded coacervates for 2 h, 6 h, or 24 h (final DQ-OVA concentration was 2.5 μg/mL). Cells treated with PBS or soluble OVA served as controls. Cells were then washed and fixed using 4% Paraformaldehyde (PFA) for 15 min at RT and permeabilized with 0.1% Triton X-100 for 5 min prior to nuclear staining with Hoechst stain (Catalog number: 62249, Thermo Fischer Scientific; 10 μg/mL). Cells were imaged (60×) on Lionheart FX automated microscope (BioTek Instruments, Inc.) with controlled exposure S13 page 14: parameters across two channels: eGFP and DAPI."}, "[2]": {"system": "BMDCs overlaid with OVA1.3 hybridoma cells", "assay": "In vitro antigen presentation assay, MHC class I (BMDCs + OVA1.3 hybridoma, IL-2 ELISA)", "format": "cell-based, mouse", "conditions": "inhibitor 30 min before coacervates, Bortezomib 10 nM, Brefeldin A 17.8 µM, Lactacystin 50 µM", "from_the_text": "parameters across two channels: eGFP and DAPI. Images were captured for each time point (2, 6, […]\ndeconvoluted using Gen 5 software overlaid to visualize localization. To test the effect of […]\nT cell proliferation and functional cytokine production […]\nat 1×10^8 cells/mL in EasySep Buffer."}, "[3]": {"assay": "Dynamic light scattering (DLS) droplet size", "format": "physicochemical", "conditions": "1 mM peptide, 1× PBS, pH 7.4; mean of 3 measurements with 14 scans each; identical for each pair of enantiomers", "protocol": "Optical microscopy and dynamic light scattering (DLS) […]\nCoacervate size was measured using 1 mM\npeptide solutions (1×PBS, pH 7.4) on a ZEN 3600 Zetasizer (Malvern Instruments, UK) using\nDLS-Zen 0040 specialized cuvettes. The results were reported as the means of three\nmeasurements, with 14 scans for each measurement. […]"}, "Turbidity assay of LLPS": {"assay": "Turbidity assay of LLPS", "format": "physicochemical", "conditions": "1× PBS pH 7.4, absorbance at 600 nm over 24 h, plate reader", "from_the_text": "(§1) Peptide synthesis and purification\nThe L- and D-enantiomers of (GHGLY)4, (GHGVY)4 and (GHGPY)4 peptides were purchased from GenScript and used without further modification. (GHGAY)4, (GHGFY)4, (GHGIY)4 and (GHGNY)4 were synthesized using standard Fmoc-SPPS chemistry on Rink Amide with Oxyma (Ethyl cyano(hydroxyimino) acetate) and N, N′-diisopropylcarbodiimide (DIC) as coupling agents on a Liberty Blue microwave-assisted synthesizer. Peptides were cleaved using a cocktail of trifluoroacetic acid (TFA), tri-isopropyl silane (TIS), and H2O (95:2.5:2.5) and extracted and washed in cold diethyl ether. The resulting pellet was dissolved in acetonitrile/water mixture (50:50) and frozen prior to lyophilization. Peptides were purified (~90%) using High Performance Liquid Chromatography (HPLC) on a Dionex Ultimate 3000 HPLC equipped with a diode-array detector on an Agilent Poroshell RP-C18 column (4.6 mm×150 mm), operating at a flow rate of 1 mL/min. […]\n(§2) Peptide solutions (0.25–1.5 mM) were prepared in 1×PBS at pH 7.4. Aliquots (140 µL) were pipetted into a 96-well plate and absorbance at 600 nm was measured over 24 h using a Synergy HT plate reader (Biotek, USA) at RT or 37°C with or without agitation. The pH dependence of LLPS formation was assessed in 0.1 M potassium phosphate buffer (with 150 mM NaCl) at different pH values (5.8, 6.6, 7.4, 8.0) and 1 mM peptide concentration. […]\nNaCl) was used to study ionic strength effects. The absorbance was further converted to turbidity using methods previously described 1 and data was plotted as relative turbidity. […]\nDroplets were visualized in 1×PBS using NCI Leica DMC4500 microscope in reflection mode with differential interference contrast. […] Coacervate size was measured using 1 mM peptide solutions (1×PBS, pH 7.4) on a ZEN 3600 Zetasizer (Malvern Instruments, UK) using DLS-Zen 0040 specialized cuvettes. […]\nViscosity of the peptide solutions (1 mM or 2 mM) was tested using an ARES 2000ex rotational rheometer (TA Instruments, New Castle, DE). […] Viscosity was measured as a function"}, "[4]": {"assay": "Optical microscopy of coacervate formation (LLPS)", "format": "physicochemical", "from_the_text": "NaCl) was used to study ionic strength effects. The absorbance was further converted to turbidity using methods previously described 1 and data was plotted as relative turbidity.\nOptical microscopy and dynamic light scattering (DLS)\nDroplets were visualized in 1×PBS using NCI Leica DMC4500 microscope in reflection mode with differential interference contrast. Images were captured with a DMC4500 camera under the control of Leica LAS X software (version 3.4.2). […]"}, "[5]": {"assay": "Encapsulation efficiency measurement", "format": "physicochemical", "conditions": "1 mM peptide, 1 µM eGFP in PBS; centrifuged 15,000 × g 10 min; fluorescence of supernatant (λex 395 nm, λem 510 nm)", "protocol": "Encapsulation efficiency measurements […]\npowders to a final peptide concentration of 1 mM. Cargo concentrations in the stock solutions […]\nnm and λem: 519 nm). For small molecule dyes, similar methods were used. The encapsulation efficiency was determined as reported previously 12.\nCellular uptake and antigen presentation assays […]\nto addition of OVA-loaded coacervates. Final OVA concentration was 1 µg/mL for time- […]\n37°C and complete RPMI media served as controls. Soluble OVA and PBS treated cells were used as controls for antigen delivery."}, "[6]": {"assay": "Critical concentration (Ccrit) of coacervate formation", "format": "physicochemical", "conditions": "1× PBS, pH 7.4; enantiomeric variants identical", "from_the_text": "as §1\nThe L- and D-enantiomers of (GHGLY)4, (GHGVY)4 and (GHGPY)4 peptides were purchased from GenScript and used without further modification. (GHGAY)4, (GHGFY)4, (GHGIY)4 and (GHGNY)4 were synthesized using standard Fmoc-SPPS chemistry on Rink Amide with Oxyma (Ethyl cyano(hydroxyimino) acetate) and N, N′-diisopropylcarbodiimide (DIC) as coupling agents on a Liberty Blue microwave-assisted synthesizer. Peptides were cleaved using a cocktail of trifluoroacetic acid (TFA), tri-isopropyl silane (TIS), and H2O (95:2.5:2.5) and extracted and washed in cold diethyl ether. The resulting pellet was dissolved in acetonitrile/water mixture (50:50) and frozen prior to lyophilization. Peptides were purified (~90%) using High Performance Liquid Chromatography (HPLC) on a Dionex Ultimate 3000 HPLC equipped with a diode-array detector on an Agilent Poroshell RP-C18 column (4.6 mm×150 mm), operating at a flow rate of 1 mL/min. Peaks corresponding to 220 nm were collected for MALDI -TOF mass analysis (Shimadzu MALDI-8030) using α-cyno-4-hydroxycinnamic acid matrix (Bruker Daltonics, MA).\nas §2, with “concentration. Similarly, 0.1 M potassium phosphate buffer (pH 7.4) with varying salt concent rations (0, 150, 250, 500, 1000 mM” for “concentration.”\nFigure S10. Determination of Ccrit for (a) (GHGLY)4, (b) (GHGVY)4, (c) (GHGPY)4 and (d-f) their corresponding enantiomers (1 mM, 1× PBS, pH 7.4).\nTable S1. Measured Ccrit values for (GHGXY)4 peptides used in this study.\n(1 picture or pasted object on this page, not shown here)"}},
  "data": [
    {"compound": "CN(C)CCCN1c2ccccc2Sc2ccc(Cl)cc21", "note": "[CPZ, chlorpromazine]", "values": [
      {"measurement": "effect of endocytosis inhibitor on uptake of coacervates (IL-2)", "setting": "[1]", "result": "did not significantly impact droplet uptake"}
    ]},
    {"compound": "O=C(N/N=C/c1ccc(O)c(O)c1)c1cc2ccccc2cc1O", "note": "[Dyn, dynasore]", "values": [
      {"measurement": "effect of endocytosis inhibitor on uptake of coacervates (IL-2)", "setting": "[1]", "result": "did not significantly impact droplet uptake"}
    ]},
    {"compound": "Cl.N", "note": "[NH4Cl, reference compound]", "values": [
      {"measurement": "DQ-OVA fluorescence intensity in DCs in the presence of inhibitor", "setting": "DCs", "result": "reduced"}
    ]},
    {"compound": "CO/C1=C\\C(C)=C\\[C@@H](C)[C@@H](O)[C@@H](C)C/C(C)=C/C=C/[C@H](OC)[C@@H]([C@@H](C)[C@@H](O)[C@H](C)[C@@]2(O)C[C@@H](O)[C@H](C)[C@@H](C(C)C)O2)OC1=O", "note": "[bafilomycin, reference compound]", "values": [
      {"measurement": "DQ-OVA fluorescence intensity in DCs in the presence of inhibitor", "setting": "DCs", "result": "reduced"}
    ]},
    {"compound": "CC(C)C[C@H](NC(=O)[C@H](Cc1ccccc1)NC(=O)c1cnccn1)B(O)O", "note": "[bortezomib]", "values": [
      {"measurement": "MHC class I presentation (IL-2 secretion) with MHC-I inhibitor", "setting": "[2]", "result": "significantly diminished"}
    ]},
    {"compound": "C[C@H]1CCC/C=C/[C@@H]2C[C@H](O)C[C@H]2[C@H](O)/C=C/C(=O)O1", "note": "[brefeldin A]", "values": [
      {"measurement": "MHC class I presentation (IL-2 secretion) with MHC-I inhibitor", "setting": "[2]", "result": "significantly diminished"}
    ]},
    {"compound": "CC(=O)N[C@@H](CSC(=O)[C@]1([C@@H](O)C(C)C)NC(=O)[C@H](C)[C@@H]1O)C(=O)O", "note": "[lactacystin]", "values": [
      {"measurement": "MHC class I presentation (IL-2 secretion) with MHC-I inhibitor", "setting": "[2]", "result": "significantly diminished"}
    ]},
    {"compound": "COC[C@H]1OC(=O)c2coc3c2[C@@]1(C)C1=C(C3=O)[C@@H]2CCC(=O)[C@@]2(C)C[C@H]1OC(C)=O", "note": "[wortmannin]", "values": [
      {"measurement": "effect of endocytosis inhibitor on uptake of coacervates (IL-2)", "setting": "[1]", "result": "most significant effect on uptake of coacervates"}
    ]},
    {"compound": "(GHGPY)4 [GP 20]", "values": [
      {"measurement": "droplet size (DLS)", "setting": "[3]", "result": "~0.2", "unit": "μm"},
      {"measurement": "turbidity over time (A600)", "setting": "Turbidity assay of LLPS", "result": "no turbidity changes were detected with time"},
      {"measurement": "coacervates at concentrations exceeding 250 mM NaCl", "setting": "[4]; optical micrographs, 0.1 M potassium phosphate buffer pH 7.4, > 250 mM NaCl", "result": "no coacervates were detected"},
      {"measurement": "coacervate formation", "setting": "[4]; optical microscopy, 1× PBS, across multiple synthesis batches", "result": "Consistent coacervate formation"},
      {"measurement": "eGFP loading efficiency", "setting": "[5]", "result": "~30", "unit": "%"},
      {"measurement": "critical concentration (Ccrit) of coacervate formation", "setting": "[6]", "result": 1, "unit": "mM"}
    ]},
    {"compound": "methyl β-CD", "values": [
      {"measurement": "effect of endocytosis inhibitor on uptake of coacervates (IL-2)", "setting": "[1]", "result": "did not significantly impact droplet uptake"}
    ]}
  ]
}
